Test results taken from the NIST ThermoML archive (doi:10.1021/je049591p).
± gives the expanded uncertainty stated by the source.

What was measured:
[1] = for surface tension liquid-gas: Ring tensiometer; for mass density: 101.33 kPa, Liquid
[2] = xn = mol fraction of the nth substance listed; conditions: Ring tensiometer

With OCCO [1,2-ethanediol] the surface tension liquid-gas ([1]; 293.15 K) was 48.42 ± 0.84 mN/m, the mass density ([1]; 293.15 K) was 1113.34 ± 1 kg/m3 and the surface tension liquid-gas ([1]; 298.15 K) was 48.03 ± 0.83 mN/m. For the same compound, the surface tension liquid-gas ([1]; 303.15 K) was 47.57 ± 0.82 mN/m, the mass density ([1]; 303.15 K) was 1106.36 ± 0.93 kg/m3 and the surface tension liquid-gas ([1]; 308.15 K) was 47.2 ± 0.82 mN/m. It also gave a surface tension liquid-gas ([1]; 313.15 K) of 46.78 ± 0.81 mN/m, a mass density ([1]; 313.15 K) of 1098.39 ± 0.84 kg/m3 and a surface tension liquid-gas ([1]; 318.15 K) of 46.42 ± 0.8 mN/m. The surface tension liquid-gas ([1]; 323.15 K) was 46.02 ± 0.8 mN/m and the mass density ([1]; 323.15 K) was 1091.05 ± 0.77 kg/m3.

For OCCO [1,2-ethanediol] + OCc1ccccc1, the surface tension liquid-gas ([2]; 293.15 K, x2 = 0) was 48.42 ± 0.84 mN/m, the surface tension liquid-gas ([2]; 298.15 K, x2 = 0) was 48.03 ± 0.83 mN/m and the surface tension liquid-gas ([2]; 303.15 K, x2 = 0) was 47.57 ± 0.82 mN/m. The surface tension liquid-gas ([2]; 308.15 K, x2 = 0) was 47.2 ± 0.82 mN/m, the surface tension liquid-gas ([2]; 313.15 K, x2 = 0) was 46.78 ± 0.81 mN/m and the surface tension liquid-gas ([2]; 318.15 K, x2 = 0) was 46.42 ± 0.8 mN/m. It also gave a surface tension liquid-gas ([2]; 323.15 K, x2 = 0) of 46.02 ± 0.8 mN/m.

Work on OCc1ccccc1 [benzenemethanol] yielded a surface tension liquid-gas ([1]; 293.15 K) of 39.05 ± 0.71 mN/m, a mass density ([1]; 293.15 K) of 1045.2 ± 1 kg/m3 and a surface tension liquid-gas ([1]; 298.15 K) of 38.58 ± 0.71 mN/m. For the same compound, the mass density ([1]; 298.15 K) was 1041.4 ± 1 kg/m3, the surface tension liquid-gas ([1]; 303.15 K) was 38.12 ± 0.7 mN/m and the mass density ([1]; 303.15 K) was 1037.5 ± 0.9 kg/m3. It also gave a surface tension liquid-gas ([1]; 308.15 K) of 37.63 ± 0.69 mN/m, a mass density ([1]; 308.15 K) of 1033.6 ± 0.9 kg/m3 and a surface tension liquid-gas ([1]; 313.15 K) of 37.16 ± 0.68 mN/m. It also gave a mass density ([1]; 313.15 K) of 1029.8 ± 0.8 kg/m3, a surface tension liquid-gas ([1]; 318.15 K) of 36.63 ± 0.68 mN/m and a mass density ([1]; 318.15 K) of 1025.8 ± 0.8 kg/m3. It also gave a surface tension liquid-gas ([1]; 323.15 K) of 36.18 ± 0.67 mN/m and a mass density ([1]; 323.15 K) of 1021.9 ± 0.8 kg/m3.

OCc1ccccc1 [benzenemethanol] + OCCO gave a surface tension liquid-gas ([2]; 293.15 K, x1 = 0.0319) of 47.78 ± 0.83 mN/m, a surface tension liquid-gas ([2]; 293.15 K, x1 = 0.0535) of 47.45 ± 0.82 mN/m and a surface tension liquid-gas ([2]; 293.15 K, x1 = 0.0727) of 47.13 ± 0.82 mN/m. For the same compound, the surface tension liquid-gas ([2]; 293.15 K, x1 = 0.0854) was 46.69 ± 0.81 mN/m, the surface tension liquid-gas ([2]; 293.15 K, x1 = 0.1118) was 45.87 ± 0.8 mN/m and the surface tension liquid-gas ([2]; 293.15 K, x1 = 0.206) was 44.07 ± 0.77 mN/m. It also gave a surface tension liquid-gas ([2]; 293.15 K, x1 = 0.2633) of 42.87 ± 0.76 mN/m, a surface tension liquid-gas ([2]; 293.15 K, x1 = 0.3883) of 41.53 ± 0.74 mN/m and a surface tension liquid-gas ([2]; 293.15 K, x1 = 0.5596) of 40.58 ± 0.73 mN/m. For the same compound, the surface tension liquid-gas ([2]; 293.15 K, x1 = 0.7394) was 39.44 ± 0.71 mN/m, the surface tension liquid-gas ([2]; 293.15 K, x1 = 0.9101) was 39.28 ± 0.71 mN/m and the surface tension liquid-gas ([2]; 293.15 K, x1 = 1) was 39.05 ± 0.71 mN/m. For the same compound, the surface tension liquid-gas ([2]; 298.15 K, x1 = 0.0319) was 47.35 ± 0.82 mN/m, the surface tension liquid-gas ([2]; 298.15 K, x1 = 0.0535) was 47.01 ± 0.81 mN/m and the surface tension liquid-gas ([2]; 298.15 K, x1 = 0.0727) was 46.67 ± 0.81 mN/m. For the same compound, the surface tension liquid-gas ([2]; 298.15 K, x1 = 0.0854) was 46.19 ± 0.8 mN/m, the surface tension liquid-gas ([2]; 298.15 K, x1 = 0.1118) was 45.43 ± 0.79 mN/m and the surface tension liquid-gas ([2]; 298.15 K, x1 = 0.206) was 43.61 ± 0.77 mN/m. The surface tension liquid-gas ([2]; 298.15 K, x1 = 0.2633) was 42.42 ± 0.75 mN/m, the surface tension liquid-gas ([2]; 298.15 K, x1 = 0.3883) was 41.07 ± 0.73 mN/m and the surface tension liquid-gas ([2]; 298.15 K, x1 = 0.5596) was 40.18 ± 0.72 mN/m. The surface tension liquid-gas ([2]; 298.15 K, x1 = 0.7394) was 38.95 ± 0.71 mN/m, the surface tension liquid-gas ([2]; 298.15 K, x1 = 0.9101) was 38.79 ± 0.71 mN/m and the surface tension liquid-gas ([2]; 298.15 K, x1 = 1) was 38.58 ± 0.71 mN/m. The surface tension liquid-gas ([2]; 303.15 K, x1 = 0.0319) was 46.92 ± 0.81 mN/m, the surface tension liquid-gas ([2]; 303.15 K, x1 = 0.0535) was 46.53 ± 0.81 mN/m and the surface tension liquid-gas ([2]; 303.15 K, x1 = 0.0727) was 46.15 ± 0.8 mN/m. For the same compound, the surface tension liquid-gas ([2]; 303.15 K, x1 = 0.0854) was 45.76 ± 0.8 mN/m, the surface tension liquid-gas ([2]; 303.15 K, x1 = 0.1118) was 44.9 ± 0.78 mN/m and the surface tension liquid-gas ([2]; 303.15 K, x1 = 0.206) was 43.08 ± 0.76 mN/m. It also gave a surface tension liquid-gas ([2]; 303.15 K, x1 = 0.2633) of 41.87 ± 0.74 mN/m, a surface tension liquid-gas ([2]; 303.15 K, x1 = 0.3883) of 40.61 ± 0.72 mN/m and a surface tension liquid-gas ([2]; 303.15 K, x1 = 0.5596) of 39.68 ± 0.71 mN/m. The surface tension liquid-gas ([2]; 303.15 K, x1 = 0.7394) was 38.45 ± 0.7 mN/m, the surface tension liquid-gas ([2]; 303.15 K, x1 = 0.9101) was 38.3 ± 0.7 mN/m and the surface tension liquid-gas ([2]; 303.15 K, x1 = 1) was 38.12 ± 0.7 mN/m. The surface tension liquid-gas ([2]; 308.15 K, x1 = 0.0319) was 46.54 ± 0.81 mN/m, the surface tension liquid-gas ([2]; 308.15 K, x1 = 0.0535) was 46.07 ± 0.8 mN/m and the surface tension liquid-gas ([2]; 308.15 K, x1 = 0.0727) was 45.72 ± 0.8 mN/m. It also gave a surface tension liquid-gas ([2]; 308.15 K, x1 = 0.0854) of 45.31 ± 0.79 mN/m, a surface tension liquid-gas ([2]; 308.15 K, x1 = 0.1118) of 44.46 ± 0.78 mN/m and a surface tension liquid-gas ([2]; 308.15 K, x1 = 0.206) of 42.6 ± 0.75 mN/m. It also gave a surface tension liquid-gas ([2]; 308.15 K, x1 = 0.2633) of 41.39 ± 0.73 mN/m, a surface tension liquid-gas ([2]; 308.15 K, x1 = 0.3883) of 40.14 ± 0.72 mN/m and a surface tension liquid-gas ([2]; 308.15 K, x1 = 0.5596) of 39.24 ± 0.71 mN/m. For the same compound, the surface tension liquid-gas ([2]; 308.15 K, x1 = 0.7394) was 37.94 ± 0.69 mN/m, the surface tension liquid-gas ([2]; 308.15 K, x1 = 0.9101) was 37.79 ± 0.69 mN/m and the surface tension liquid-gas ([2]; 308.15 K, x1 = 1) was 37.63 ± 0.69 mN/m. It also gave a surface tension liquid-gas ([2]; 313.15 K, x1 = 0.0319) of 46.14 ± 0.8 mN/m, a surface tension liquid-gas ([2]; 313.15 K, x1 = 0.0535) of 45.66 ± 0.79 mN/m and a surface tension liquid-gas ([2]; 313.15 K, x1 = 0.0727) of 45.26 ± 0.79 mN/m. For the same compound, the surface tension liquid-gas ([2]; 313.15 K, x1 = 0.0854) was 44.85 ± 0.78 mN/m, the surface tension liquid-gas ([2]; 313.15 K, x1 = 0.1118) was 44.04 ± 0.77 mN/m and the surface tension liquid-gas ([2]; 313.15 K, x1 = 0.206) was 42.12 ± 0.74 mN/m. For the same compound, the surface tension liquid-gas ([2]; 313.15 K, x1 = 0.2633) was 40.84 ± 0.72 mN/m, the surface tension liquid-gas ([2]; 313.15 K, x1 = 0.3883) was 39.7 ± 0.71 mN/m and the surface tension liquid-gas ([2]; 313.15 K, x1 = 0.5596) was 38.77 ± 0.7 mN/m. For the same compound, the surface tension liquid-gas ([2]; 313.15 K, x1 = 0.7394) was 37.51 ± 0.68 mN/m, the surface tension liquid-gas ([2]; 313.15 K, x1 = 0.9101) was 37.35 ± 0.68 mN/m and the surface tension liquid-gas ([2]; 313.15 K, x1 = 1) was 37.16 ± 0.68 mN/m. For the same compound, the surface tension liquid-gas ([2]; 318.15 K, x1 = 0.0319) was 45.71 ± 0.79 mN/m, the surface tension liquid-gas ([2]; 318.15 K, x1 = 0.0535) was 45.24 ± 0.79 mN/m and the surface tension liquid-gas ([2]; 318.15 K, x1 = 0.0727) was 44.86 ± 0.78 mN/m. It also gave a surface tension liquid-gas ([2]; 318.15 K, x1 = 0.0854) of 44.41 ± 0.78 mN/m, a surface tension liquid-gas ([2]; 318.15 K, x1 = 0.1118) of 43.53 ± 0.76 mN/m and a surface tension liquid-gas ([2]; 318.15 K, x1 = 0.206) of 41.67 ± 0.74 mN/m. The surface tension liquid-gas ([2]; 318.15 K, x1 = 0.2633) was 40.4 ± 0.72 mN/m, the surface tension liquid-gas ([2]; 318.15 K, x1 = 0.3883) was 39.24 ± 0.7 mN/m and the surface tension liquid-gas ([2]; 318.15 K, x1 = 0.5596) was 38.27 ± 0.69 mN/m. It also gave a surface tension liquid-gas ([2]; 318.15 K, x1 = 0.7394) of 36.99 ± 0.67 mN/m, a surface tension liquid-gas ([2]; 318.15 K, x1 = 0.9101) of 36.84 ± 0.68 mN/m and a surface tension liquid-gas ([2]; 318.15 K, x1 = 1) of 36.63 ± 0.68 mN/m. It also gave a surface tension liquid-gas ([2]; 323.15 K, x1 = 0.0319) of 45.26 ± 0.79 mN/m, a surface tension liquid-gas ([2]; 323.15 K, x1 = 0.0535) of 44.79 ± 0.78 mN/m and a surface tension liquid-gas ([2]; 323.15 K, x1 = 0.0727) of 44.32 ± 0.77 mN/m. The surface tension liquid-gas ([2]; 323.15 K, x1 = 0.0854) was 43.91 ± 0.77 mN/m, the surface tension liquid-gas ([2]; 323.15 K, x1 = 0.1118) was 43.06 ± 0.76 mN/m and the surface tension liquid-gas ([2]; 323.15 K, x1 = 0.206) was 41.16 ± 0.73 mN/m. It also gave a surface tension liquid-gas ([2]; 323.15 K, x1 = 0.2633) of 39.9 ± 0.71 mN/m, a surface tension liquid-gas ([2]; 323.15 K, x1 = 0.3883) of 38.76 ± 0.69 mN/m and a surface tension liquid-gas ([2]; 323.15 K, x1 = 0.5596) of 37.79 ± 0.68 mN/m. It also gave a surface tension liquid-gas ([2]; 323.15 K, x1 = 0.7394) of 36.53 ± 0.67 mN/m, a surface tension liquid-gas ([2]; 323.15 K, x1 = 0.9101) of 36.38 ± 0.67 mN/m and a surface tension liquid-gas ([2]; 323.15 K, x1 = 1) of 36.18 ± 0.67 mN/m.
